In brackets after ≈: the same amount, converted by molar mass. *1 amine or outer side, *2 acyl side, *3 side chain or, on linkers, in order; H or OH if unused. Where a SMILES comes first, the peptide text is derived from it. [ ]: non-standard residue; d: D form. X1 = CC(Cc1ccccc1)C(N[*:1])C(=O)[*:2]; X2 = CC(C)C(N[*:1])C(C)C(=O)[*:2]; dNMeV = CN[C@@H](C(=O)O)C(C)C; dHiv = CC(C)[C@@H](O)C(=O)O; Lac = C[C@H](O)C(=O)O
Tests used:
Type in all cases: functional
NCI-H460 = assay: Growth inhibition of human NCI-H460 cells
KM-20L2 = assay: Growth inhibition of human KM20L2 cells
MDA-MB-435 = assay: Growth inhibition of human MDA-MB-435 cells
SK-MEL-5 = assay: Growth inhibition of human SK-MEL-5 cells
MCF7 = assay: Growth inhibition of human MCF7 cells
MDA-N = assay: Growth inhibition of human MDA-N cells
SF-295 = assay: Growth inhibition of human SF295 cells

GI50 (NCI-H460): 0.96 ng/mL (≈ 1.09 nM)
GI50 (MDA-MB-435): 34.7 nM
GI50 (SK-MEL-5): 3.3 ng/mL (≈ 3.75 nM)
GI50 (MCF7): 47.9 nM
SMILES: CC(C)C1NC(=O)[C@@H]2CCCN2C(=O)C(C(C)Cc2ccccc2)NC(=O)[C@@H]2CCCN2C(=O)[C@@H](C(C)C)N(C)C(=O)[C@@H](C(C)C)OC(=O)[C@@H]2CCCN2C(=O)[C@H](C)OC(=O)C1C (some centres not stated) [DOLASTATIN 16] (cyclo([Lac]P[dHiv][dNMeV]P[X1]P[X2]))
GI50 (KM-20L2): 1.2 ng/mL (≈ 1.37 nM)
GI50 (MDA-N): 28.8 nM
GI50 (SF-295): 5.2 ng/mL (≈ 5.92 nM)

— ChEMBL document CHEMBL1146422, “Isolation and structure of the human cancer cell growth inhibitory cyclodepsipeptide dolastatin 16” (1997)
